For assay [1], the system named is PDE10A. As to conditions: reported; substrate column not distinguished; read-out: Phosphodiesterase Inhibition PDE10A IC50 (reported); cited from earlier work.
Assay [2] relates to HCT116 human colon tumor cells. Description: Growth assay (Cell Titer Glo), HCT116. The note with it: for HCT116 colon tumor cell growth, single agents and combination (in words): FIG. 12A. It counts as cell-based. The text has this: (§1) All cell lines comprising the NCI-60 cancer cell panel were obtained from the NCI Developmental Therapeutics Program and maintained under the same standard conditions. The human normal colonocyte (NCM460) cell line was purchased from Incell (San Antonio, Tex.) and grown according to the manufacturer's specifications. The human colon adenoma cell line, LT97, was a gift from Dr. Brigitte Marian (Medical University Vienna, Austria) and grown according to the provider's specifications. Human mammary epithelial cells (HMEC) were purchased from Lonzo and grown using culture conditions as recommended by the supplier.
(§2) Ninety-six (96)-well microtiter plates were seeded at a density of 5,000 cells per well. For drug treatment, cells were treated with compounds or vehicle control, and incubated at 37° C. for 72 hours. For siRNA assays, cells were transfected with siRNA under the same conditions described above. The effect of treatment with inhibitors or siRNA knockdown of PDE10A on growth was measured using the Cell Titer Glo Assay (Promega), which measures viable cell number based on ATP content.
(§3) Effect of various PDE isozyme inhibitors on the growth of human colon tumor cells HCT116 and HT29 was determined using the Cell Titer Glo Cell Viability Assay (Promega) following 72 hours of treatment.
(§4) The effect of the inhibitors on the growth of human colon tumor and normal colonocytes was measured using the Cell Titer Glo Cell Viability Assay (Promega) as described above. The inhibitory potency toward purified recombinant phosphodiesterase enzymes was measured using the IMAP Phosphodiesterase Assay as described in the Materials and Methods section.
On the technique in general: ATP-based viability assays read luminescence as a measure of living cells.

Assay [3] has as its system SW480 human colon tumor cells. Description: Growth assay (Cell Titer Glo), SW480. The format is cell-based. The note with it: PDE10 Inhibitors table, read-out: Growth Inhibition IC50, SW-480.
Description: as §1, §2, §4

A further assay deals with other PDE isozymes. The note with it: reported, read-out: Phosphodiesterase Inhibition, Others, IC50 (reported); cited from earlier work.
In assay [4] the test system is HT29 human colon tumor cells. Description: Growth assay (Cell Titer Glo), HT29. The format is cell-based.
Description: as §1, §2, §3, §4

A further assay deals with T1, PDE3A (Homo sapiens, UniProt Q14432).
T1 construct: purchased BPS Biosciences
As to conditions: reported; substrate column not distinguished; read-out: Phosphodiesterase Inhibition PDE3A IC50 (reported); cited from earlier work.

For the next assay, the target named is PDE7A1 (Homo sapiens, UniProt Q13946). The note with it: @ 3 μM; cited from earlier work.
Assay [5] concerns the target T2, PDE10A (Homo sapiens, UniProt Q9Y233).
T2 construct: other: substrate cGMP; recombinant enzyme; other: substrate cAMP
Briefly: IMAP fluorescence polarization PDE assay, PDE10A. It counts as biochemical. As to conditions: recombinant enzyme. As for the experimental part:
(§5) MY5445 was purchased from EMD Millipore. […] Recombinant PDE enzymes were purchased from BPS Biosciences. DMSO was used as the vehicle for testing effects of all compounds.
(§6) PDE enzymatic activity was measured using IMAP fluorescence polarization assay (Molecular Devices. Inc.). […] For experiments involving cell extracts, 2×10^5 cells per well were plated on a six-well tissue culture plate 72 hours prior to cell lysis.
as §4

A further assay relates to β-catenin and survivin. Description: Western blotting of β-catenin and survivin levels in HCT116. It counts as cell-based, human. The note with it: FIG. 12B. Here is the method:
Western blot analysis was performed as described previously (Tinsley, et al., supra). The following antibodies were used to detect specific proteins: PDE2 (GeneTex, 1:1000), PDE3 (Abcam, 1:1000), PDE5 (Cell Signaling, 1:1000), PDE10 (GeneTex, 1:1000), survivin (Cell Signaling, 1:1000), GAPDH (Cell Signaling, 1:5000).
(In general: Immunoblotting shows a protein as a band on a membrane.)

Assay [6] relates to cGMP PDE activity in lysates from HCT116 cells. Briefly: cGMP PDE activity in HCT116 cell lysates (IMAP). It counts as biochemical, human. The note with it: FIG. 11B. As for the experimental part:
Cell growth was measured by the Cell Titer Glo cell viability assay (Promega) following 72 hours of treatment, while cGMP PDE activity was measuring using the IMAP fluorescence polarization PDE assay (Molecular Devises).
as §6

In assay [7] the test system is normal colonocytes (NCM460). Briefly: Growth assay (Cell Titer Glo), normal colonocytes NCM460. As to conditions: for IC50: Homo sapiens, NCM460. The format is cell-based, human.
Description: as §1, §2, §4

Assay [8] concerns patients with metastatic disease. The note with it: Lundholm et al. 1994; cited from earlier work.
In another assay the test system is human colon tumor cells. Briefly: Colon tumor cell growth (Cell Titer Glo), cell line not specified. The format is cell-based. The note with it: 72 hours of treatment. As for the experimental part: as §2, §3
Another assay deals with T3, PDE5A (Homo sapiens, UniProt O76074).
T3 construct: purchased BPS Biosciences
Briefly: IMAP fluorescence polarization PDE assay, PDE5A. It counts as biochemical. As to conditions: substrate cGMP; read-out: Phosphodiesterase Inhibition PDE5A (PDE5) cGMP IC50. As for the experimental part:
as §5, §6, §4

For assay [9], the system named is NCI-60 cancer cell line panel. Description: Growth inhibition in NCI-60 cancer cell line panel. The format is cell-based, human. The note with it: FIG. 13. Here is the method: Tumor growth inhibitory activity was measured using a cell viability assay following 72 hours of treatment. Potency values (GI50) as measured in each tumor cell line are shown on the y axis.
The human colon tumor cell lines, HCT116, HT29, SW480, SW620, colo741, Caco-2, DLD-1, LS174T, and RKO and human breast tumor cell lines, MCF7, T47D, ZR75, MDA-MB-231, HS578T, and MDA-MB-468 were purchased from ATCC and grown under standard cell culture conditions in RPMI 1640 medium containing 5% fetal bovine serum (FBS) at 37° C. in a humidified atmosphere with 5% CO2. All cell lines comprising the NCI-60 cancer cell panel were obtained from the NCI Developmental Therapeutics Program and maintained under the same standard conditions. The human normal colonocyte (NCM460) cell line was purchased from Incell (San Antonio, Tex.) and grown according to the manufacturer's specifications. The human colon adenoma cell line, LT97, was a gift from Dr. Brigitte Marian (Medical University Vienna, Austria) and grown according to the provider's specifications. […]
Ninety-six (96)-well microtiter plates were seeded at a density of 5,000 cells per well. […] The effect of treatment with inhibitors or siRNA knockdown of PDE10A on growth was measured using the Cell Titer Glo Assay (Promega), which measures viable cell number based on ATP content. […]

The mark [10] stands for this setting: Homo sapiens, HCT-116, PDE10 Inhibitors table, read-out: Growth Inhibition IC50, HCT-116.
[11] abbreviates: Homo sapiens, HT-29, PDE10 Inhibitors table, read-out: Growth Inhibition IC50, HT-29.
[12] abbreviates: 72 hours of treatment, PDE isozyme inhibitor table.
The mark [13] stands for this setting: PDE10 Inhibitors table, read-out: Growth Inhibition IC50, NCM-460.

Read-outs that look alike come from different tables or passages of the source.

As a reminder, the GI50 is the concentration at which growth is held to half of that of the control.

T2 sequence (Q9Y233 290-1055 limits assumed): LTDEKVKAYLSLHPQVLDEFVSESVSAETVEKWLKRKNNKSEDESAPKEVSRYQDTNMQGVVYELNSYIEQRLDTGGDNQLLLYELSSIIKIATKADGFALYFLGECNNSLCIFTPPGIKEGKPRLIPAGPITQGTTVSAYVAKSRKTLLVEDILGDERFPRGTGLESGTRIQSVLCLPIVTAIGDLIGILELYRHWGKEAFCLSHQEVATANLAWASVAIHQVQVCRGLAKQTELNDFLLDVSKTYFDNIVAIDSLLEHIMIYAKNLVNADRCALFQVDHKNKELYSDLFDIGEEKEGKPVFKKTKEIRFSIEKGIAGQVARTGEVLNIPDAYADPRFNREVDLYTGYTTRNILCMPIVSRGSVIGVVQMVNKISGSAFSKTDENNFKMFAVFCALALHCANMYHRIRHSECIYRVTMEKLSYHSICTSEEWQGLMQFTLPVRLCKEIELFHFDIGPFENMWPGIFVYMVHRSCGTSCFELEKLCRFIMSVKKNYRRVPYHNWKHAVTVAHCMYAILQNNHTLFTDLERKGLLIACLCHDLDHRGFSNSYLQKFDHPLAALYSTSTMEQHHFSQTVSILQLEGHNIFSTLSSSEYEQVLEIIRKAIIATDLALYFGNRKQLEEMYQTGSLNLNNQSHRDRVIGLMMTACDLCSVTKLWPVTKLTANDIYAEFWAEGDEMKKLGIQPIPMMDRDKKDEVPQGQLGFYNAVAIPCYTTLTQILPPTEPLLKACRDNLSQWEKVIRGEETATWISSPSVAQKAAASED
PDE7A1, sequence (Q13946 whole entry, species assumed): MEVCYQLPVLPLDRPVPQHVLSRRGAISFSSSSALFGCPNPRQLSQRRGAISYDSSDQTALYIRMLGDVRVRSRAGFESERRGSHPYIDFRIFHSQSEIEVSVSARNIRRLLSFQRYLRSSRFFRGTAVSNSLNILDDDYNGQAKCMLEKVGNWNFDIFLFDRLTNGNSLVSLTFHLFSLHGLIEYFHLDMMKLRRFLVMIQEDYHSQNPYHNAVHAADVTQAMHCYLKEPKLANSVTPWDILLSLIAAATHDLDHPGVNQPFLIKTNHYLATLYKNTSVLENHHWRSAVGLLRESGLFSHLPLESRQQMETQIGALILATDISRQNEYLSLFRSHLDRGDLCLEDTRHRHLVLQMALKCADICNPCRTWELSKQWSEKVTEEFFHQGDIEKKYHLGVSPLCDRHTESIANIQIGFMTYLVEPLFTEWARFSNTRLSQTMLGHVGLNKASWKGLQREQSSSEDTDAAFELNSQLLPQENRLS
T1 sequence (Q14432 whole entry): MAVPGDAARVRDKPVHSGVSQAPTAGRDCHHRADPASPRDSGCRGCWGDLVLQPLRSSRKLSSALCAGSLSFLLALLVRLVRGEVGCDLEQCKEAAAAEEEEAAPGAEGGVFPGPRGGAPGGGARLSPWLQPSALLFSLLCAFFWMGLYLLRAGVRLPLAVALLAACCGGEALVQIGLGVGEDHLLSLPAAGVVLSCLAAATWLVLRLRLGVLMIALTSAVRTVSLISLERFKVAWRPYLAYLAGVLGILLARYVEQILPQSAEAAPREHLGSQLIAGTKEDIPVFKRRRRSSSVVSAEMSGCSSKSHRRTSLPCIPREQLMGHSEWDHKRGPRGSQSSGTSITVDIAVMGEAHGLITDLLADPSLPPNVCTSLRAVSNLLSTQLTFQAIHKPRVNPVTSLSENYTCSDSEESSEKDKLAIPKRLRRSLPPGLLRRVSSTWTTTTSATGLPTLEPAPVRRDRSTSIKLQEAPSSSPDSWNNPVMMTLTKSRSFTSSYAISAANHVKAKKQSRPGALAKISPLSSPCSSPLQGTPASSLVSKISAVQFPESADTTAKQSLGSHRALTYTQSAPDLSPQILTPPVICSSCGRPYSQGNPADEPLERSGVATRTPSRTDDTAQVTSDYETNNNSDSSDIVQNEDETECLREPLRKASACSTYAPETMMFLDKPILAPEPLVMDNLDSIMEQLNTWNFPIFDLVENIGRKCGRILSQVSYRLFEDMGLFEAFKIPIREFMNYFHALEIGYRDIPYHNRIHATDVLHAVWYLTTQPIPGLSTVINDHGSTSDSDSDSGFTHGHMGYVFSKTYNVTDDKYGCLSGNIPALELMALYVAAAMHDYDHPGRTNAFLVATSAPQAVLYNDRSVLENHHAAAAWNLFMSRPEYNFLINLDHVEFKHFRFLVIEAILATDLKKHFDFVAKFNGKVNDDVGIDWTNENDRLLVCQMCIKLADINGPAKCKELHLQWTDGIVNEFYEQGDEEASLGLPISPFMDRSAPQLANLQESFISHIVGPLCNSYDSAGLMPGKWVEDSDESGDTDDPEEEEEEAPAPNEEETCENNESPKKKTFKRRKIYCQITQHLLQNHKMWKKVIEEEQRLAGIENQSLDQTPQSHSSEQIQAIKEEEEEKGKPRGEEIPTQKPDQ

Regarding `COc1cc2c(cc1OC)-c1c(-c3cccnc3)ncn1CC2` [Compound no. 7, 8,9-dimethoxy-1-(pyridin-3-yl)-5,6-dihydroimidazo[5,1-a]isoquinoline], the IC50 with PDE10A [1] was 0.029 µM; in assay [2] (setting [10]), greater than 50 µM; in [3], greater than 50 µM; in the assay on other PDE isozymes it was greater than 4 µM; in assay [4] (setting [11]), greater than 50 µM; on PDE3A, 0.449 µM. Further, at PDE7A1, the “Phosphodiesterase Inhibition PDE7A1 (reported)” value was 45%.
As for `Cc1nc2c3cc(Br)ccc3nc(SCC#N)n2n1` [Compound no. 5, 2-{(9-bromo-2-methyl-[1,2,4]triazolo[1,5-c]quinazolin-5-yl)thio}acetonitrile], the IC50 in [2] (setting [10]) amounted to 9.93 µM; at PDE10A [5] (substrate cAMP, read-out: Phosphodiesterase Inhibition PDE10A cAMP IC50) it was 0.00866 µM; on PDE10A [5] (substrate cGMP, read-out: Phosphodiesterase Inhibition PDE10A cGMP IC50), 0.0089 µM.
With `COc1cc(/C=N/NC(=O)C(OC)c2ccc(-n3cccn3)cc2)cc(OC)c1Br` (centres unmarked) [Compound no. 4, (E)-2-{4-(1H-pyrazol-1-yl)phenyl}-N′-(4-bromo-3,5-dimethoxybenzylidene)-2-methoxyacetohydrazide], the IC50 in [2] (Homo sapiens, HCT-116, read-out: Growth Inhibition IC50, HCT-116) worked out at 3.13 µM.
On to `Clc1cccc(Nc2nnc(-c3ccccc3)c3ccccc23)c1` [MY5445], for which the IC50 in [2] (72 hours of treatment, PDE isozyme inhibitor table, read-out: Growth Inhibition (IC50/μM) HCT116) came out at 18 µM; in assay [4] (72 hours of treatment, PDE isozyme inhibitor table, read-out: Growth Inhibition (IC50/μM) HT29), 11 µM. In assay [2], the “HCT116 colon tumor cell growth, single agents and combination (in words)” value is reported as “suppressed”. In the assay on β-catenin and survivin, the “β-catenin and survivin levels in HCT116 colon tumor cells (in words)” value is listed as “reduced”.
On to `COc1ccc(C2CNC(=O)C2)cc1OC1CCCC1` (centres unmarked) [Rolipram, rolipram], for which the “Growth Inhibition (IC50/μM) HCT116” value in [2] (setting [12]) was “Inactive”. Further, the “Growth Inhibition (IC50/μM) HT29” value in [4] (setting [12]) is listed as “Inactive”.
Turning to `COCc1nc2c([nH]1)c(=O)n(C)c(=O)n2CC(C)C` [8-MeoM-IBMX], the “Growth Inhibition (IC50/μM) HCT116” value in [2] (setting [12]) is “Inactive”. In addition, the “Growth Inhibition (IC50/μM) HT29” value in assay [4] (setting [12]) is given as “Inactive”.
`CCCCCC[C@@H]([C@@H](C)O)n1cnc2c(N)ncnc21` (racemic) [EHNA]: the “Growth Inhibition (IC50/μM) HCT116” value in [2] (setting [12]) is “Inactive”. Also, the “Growth Inhibition (IC50/μM) HT29” value in assay [4] (setting [12]) is on record as “Inactive”.
Consider `COc1ccc(Cc2nccc3cc(OC)c(OC)cc23)cc1OC` [Papaverine, papaverine], for which the “HCT116 colon tumor cell growth, single agents and combination (in words)” value in assay [2] is “suppressed”. Besides, the IC50 in assay [2] (Homo sapiens, HCT-116, 72 h, read-out: Growth Inhibition (IC50/μM) HCT116) worked out at 9 µM; in assay [2] (Homo sapiens, HCT-116, 72 hours of treatment, FIG. 11, read-out: IC50, growth of HCT116 colon tumor cells), 9 µM; in [2] (setting [10]) it was 6.7 µM; in assay [3] it was 11.2 µM; in [4] (Homo sapiens, HT-29, 72 h, read-out: Growth Inhibition (IC50/μM) HT29), 13 µM; in assay [4] (Homo sapiens, HT-29, 72 hours of treatment, FIG. 11, read-out: IC50, growth of HT29 colon tumor cells), 13 µM. Besides, the IC50 is 24.5 µM in [4] (setting [11]); 118 µM in [7] (72 hours of treatment, FIG. 11, read-out: IC50, growth of normal colonocytes (NCM460)); greater than 100 µM in assay [7] (setting [13]). Besides, the “β-catenin and survivin levels in HCT116 colon tumor cells (in words)” value in the assay on β-catenin and survivin is given as “reduced”. Further, in assay [6], the “cGMP hydrolysis in lysates from HCT116 cells (in words)” value was “inhibited”. In [7] (NCM460 vs HCT116 and HT29), the “normal colonocytes (NCM460) less sensitive than colon tumor cell lines” value was “approximately 11 fold”.
`COc1ccc2c(c1)c(CC(=O)O)c(C)n2C(=O)c1ccc(Cl)cc1` [indomethacin]: the extension of survival entry in assay [8] is reported as “approximately 9 months”.
`Cn1cc(-c2ccncc2)c(-c2ccc(OCc3ccc4ccccc4n3)cc2)n1` [PF-2545920, 2-[4-(1-methyl-4-pyridin-4-yl-1H-pyrazol-3-yl)-phenoxymethyl]-quinoline]: the “colon tumor cell growth inhibition (in words)” value with human colon tumor cells is recorded as “potently inhibited”. The IC50 in [2] (setting [10]) was 8.4 µM; in assay [3] it was 3.7 µM; in [4] (setting [11]), 0.95 µM; at PDE5A, greater than 50 µM; in assay [7] (setting [13]) it was 18.8 µM. Also, the “tumor cell growth inhibitory activity in the NCI-60 cancer cell line panel (in words)” value in assay [9] is reported as “broad range of tumor cell growth inhibitory activity”. The GI50 in assay [9] (Homo sapiens, 72 hours of treatment, average over panel, read-out: average GI50 value in NCI60 cancer cell line panel) worked out at 17.7 µM. For the same molecule, in [7] (72 hours of treatment, FIG. 11D), the “growth inhibition in normal colonocytes (in words)” value is reported as “appreciably less effective”.
On to `O=C1CCc2cc(OCCCCc3nnnn3C3CCCCC3)ccc2N1` [Cilostazol, cilostazol], for which, in [2] (setting [12]), the “Growth Inhibition (IC50/μM) HCT116” value is given as “Inactive”. The “Growth Inhibition (IC50/μM) HT29” value in assay [4] (setting [12]) is “Inactive”.
As for `CN1CC(=O)N2[C@H](c3ccc4c(c3)OCO4)c3[nH]c4ccccc4c3C[C@@H]2C1=O` [Tadalafil, tadalafil], the IC50 in [2] (Homo sapiens, HCT-116, 72 hours of treatment, PDE isozyme inhibitor table, read-out: Growth Inhibition (IC50/μM) HCT116) was determined as 38 µM.
